Active and inactive are the calls of the source. Rule as the data show it: active = AC50 below about 11 µM.

Test system in the first assay: not listed separately
As to the kind of experiment: TNFa pathway inhibition counter-screen, B-lineage cells – dose response (AID 1259334).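 Also: cells stimulated with TNFa after compound preincubation.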 The note with it: B cell line, TNFa signaling counterscreen reporter; at 0.0015 µM; stronger effect = lower value.
`Cc1ccc(-c2nn3c(C)nnc3c3ccccc23)cc1S(=O)(=O)NCc1ccccc1`: the max activity was 9.48% (inactive).

Staying with this assay, now noted: B cell line, TNFa signaling counterscreen reporter; at 0.0046 µM; stronger effect = lower value.
For `CCN1C(=O)C(CC(=O)Nc2ccc(OC)cc2)N(CCc2ccc(F)cc2)C1=S` (stereo unspecified), the max activity was 4.9% (inactive).

As to `NS(=O)(=O)c1cc2c(cc1C(F)(F)F)NC(Cc1ccccc1)NS2(=O)=O` (stereo unspecified), the max activity was 6.69% (inactive).

Consider `C[C@H]1CCCCO[C@H](CN(C)Cc2ccc(C(F)(F)F)cc2)[C@@H](C)CN([C@@H](C)CO)C(=O)c2cc(NC(=O)Nc3cccc4ccccc34)ccc2O1`, for which the max activity was 7.77% (inactive).

The same assay, now with this note: B cell line, TNFa signaling counterscreen reporter; at 0.0135 µM; stronger effect = lower value.
For `C[C@@H]1CN([C@@H](C)CO)C(=O)Cc2cc(NS(=O)(=O)c3ccccc3)ccc2O[C@H]1CN(C)Cc1ccc(Cl)c(Cl)c1`, the max activity was 16% (inactive).

On to `CCc1cc2c(COC(=O)c3cc(S(=O)(=O)N4CCOCC4)ccc3F)cc(=O)oc2cc1O`, for which the max activity is 15.8% (inactive).

For the compound `O=C1C=CC(=O)C2=C1C1c3ccccc3C2c2ccccc21`, the max activity was 13% (inactive).

As for `O=C(c1ccncc1)N1C[C@@H]2N[C@H](C1)C2c1ccc(/C=C/c2ccccc2)cc1` (stereo partly specified), the max activity is 8.12% (inactive).

As to `COc1cccc(OC)c1OCCNCC1COc2ccccc2O1` (stereo unspecified), the max activity was 14.5% (inactive).

`COc1ccc(S(=O)(=O)N(C)C[C@@H]2Oc3ccc(NC(=O)Nc4ccc(C(F)(F)F)cc4)cc3C(=O)N([C@@H](C)CO)C[C@@H]2C)cc1`: the max activity is 7.2% (inactive).

As for `CC(=O)Nc1nc2nc(-c3ccccc3)cc(-c3ccccc3)n2n1`, the max activity was 11.6% (inactive).

The same assay, now with this note: B cell line, TNFa signaling counterscreen reporter; at 0.042 µM; stronger effect = lower value.
For the compound `CC1=NNC(=O)C1Br` (stereo unspecified), the max activity is 52.7% (inactive).

Regarding `N#C[C@@H]1[C@@H](c2ccc(C#CC3CCCCC3)cc2)[C@H](CO)N1C(=O)Nc1ccc(F)cc1`, the max activity was 13.4% (inactive).

Still in this assay, the particulars now being: B cell line, TNFa signaling counterscreen reporter; at 0.11 µM; stronger effect = lower value.
Take `C[C@@H]1CN([C@H](C)CO)C(=O)c2c(c3ccccc3n2C)-c2ccccc2CO[C@@H]1CN(C)S(=O)(=O)c1ccccc1C#N`: the max activity was 17.1% (inactive).

Staying with this assay, now noted: B cell line, TNFa signaling counterscreen reporter; at 0.12 µM; stronger effect = lower value.
For the compound `C[C@@H]1CCCCO[C@@H](CN(C)CC2CCCCC2)[C@@H](C)CN([C@@H](C)CO)C(=O)c2cc(NC(=O)Nc3ccc(C(F)(F)F)cc3)ccc2O1`, the max activity is 11.4% (inactive).

Turning to `C[C@]12CC[C@H](O)C[C@H]1CC[C@@H]1[C@@H]2CC[C@]2(C)[C@@H](c3ccc(=O)oc3)CC[C@]12O`, the max activity was 7.82% (inactive).

`CC12CN3CC(C)(CN(C1)C3c1ccc3c(c1)OCO3)C2=O` (stereo unspecified): the max activity was -17.3% (inactive).

Take `O=c1cc(-c2ccccc2)oc2cc(O)cc(O)c12`: the max activity was 45.8% (inactive).

For the compound `Cc1ccc(O)c(N=Nc2ccccc2)n1`, the max activity is 62% (inactive).

For `Cc1ccc(C2(C)NC(=O)N(CC(=O)Nc3cccnc3Cl)C2=O)cc1` (stereo unspecified), the max activity is -17.9% (inactive).

Still in this assay, the particulars now being: B cell line, TNFa signaling counterscreen reporter; at 0.135 µM; stronger effect = lower value.
As for `N#C[C@H]1[C@H](c2ccc(C#CC3CCCCC3)cc2)[C@@H](CO)N1C(=O)Nc1ccc(F)cc1`, the max activity is 9.41% (inactive).

Still in this assay, the particulars now being: B cell line, TNFa signaling counterscreen reporter; at 0.38 µM; stronger effect = lower value.
As for `N#Cc1cccc(-c2ccc([C@@H]3[C@H](CO)N4CCCCN(C(=O)Nc5cccc(F)c5)C[C@@H]34)cc2)c1`, the max activity was -15% (inactive).

As for `C[C@@H]1CN([C@@H](C)CO)C(=O)c2c(c3ccccc3n2C)-c2ccccc2CO[C@@H]1CN(C)Cc1cccc(C(F)(F)F)c1`, the max activity is -7.66% (inactive).

Consider `C[C@H]1CN([C@@H](C)CO)C(=O)c2ccccc2-c2ccccc2CO[C@H]1CN(C)C(=O)[C@@H](Cc1ccccc1)N(C)C`, for which the max activity was -6.07% (inactive).

As for `C[C@@H]1CCCCO[C@@H](CN(C)C(=O)C2CCCCC2)[C@@H](C)CN([C@H](C)CO)C(=O)c2cc(NS(=O)(=O)c3ccccc3)ccc2O1`, the max activity was 15.5% (inactive).

On to `CC(C)NC(=O)N1CC(=O)N2[C@H](CO)[C@@H](c3ccc(/C=C/c4ccccc4)cc3)[C@H]2C1`, for which the max activity was -8.8% (inactive).

As for `Oc1cc(O)cc(/C=C/c2ccc(O)c(O)c2)c1`, the max activity was 7.46% (inactive).

Staying with this assay, now noted: B cell line, TNFa signaling counterscreen reporter; at 1.1 µM; stronger effect = lower value.
Turning to `N=C(N)c1ccc(OCCCCCOc2ccc(C(=N)N)cc2)cc1`, the max activity was 17.9% (inactive).

`COc1cccc(S(=O)(=O)N(C)C[C@@H]2OCc3ccccc3-c3c(n(C)c4ccccc34)C(=O)N([C@H](C)CO)C[C@@H]2C)c1`: the max activity is 16.8% (inactive).

Take `Cc1ccc(-c2cc(C(=O)N3CC(C)OC(C)C3)c3ccccc3n2)o1` (stereo unspecified): the max activity is 10.3% (inactive).

With `Cc1ccc2nc(-c3cc(-c4ccccc4)no3)cn2c1`, the max activity is 49.4% (inactive).

For the compound `CCCCC1C(=O)NC(=S)N(C)C1=O` (stereo unspecified), the max activity was -7.17% (inactive).

As to `CC(C)(C)n1cc(C(=O)c2ccc3ccccc3c2O)cn1`, the max activity is -24.4% (inactive).

For the compound `O=C(NCc1ccccn1)C1CCCN(S(=O)(=O)c2ccccc2)C1` (stereo unspecified), the max activity is 18.3% (inactive).

In the case of `N#C[C@H]1[C@@H](c2ccc(C#CC3CCCCC3)cc2)[C@@H](CO)N1C(=O)Nc1ccc(F)cc1`, the max activity is 10.8% (inactive).

For `COc1ccc(CN2CC3(CN(C(=O)Cc4ccccc4)C3)c3c([nH]c4cc(OC)ccc34)[C@H]2CO)cc1`, the max activity is 10.3% (inactive).

With `CCCNC(=O)N1[C@H](CO)[C@H](c2ccc(-c3cccc(OC)c3)cc2)[C@@H]1C#N`, the max activity is 18% (inactive).

In the case of `N#C[C@@H]1[C@@H](c2ccccc2-c2ccccc2)[C@@H](CO)N1C(=O)NC1CCCC1`, the max activity is 20.9% (inactive).

As to `COc1ccccc1C(=O)Nc1ccc2c(c1)C(=O)N(C)[C@H]1CC[C@H](CC(=O)Nc3cccc(C(C)C)c3)O[C@@H]1CO2`, the max activity is 37.4% (inactive).

Turning to `O=C(Nc1ccc([N+](=O)[O-])cc1Cl)c1cc(Cl)ccc1O`, the max activity is 14.6% (inactive).

Consider `CC1=CC(=O)c2ccccc2C1=O`, for which the max activity is 21.6% (inactive).

On to `NS(=O)(=O)c1nn2cc(-c3ccccc3)nc2s1`, for which the max activity was 17.7% (inactive).

The assay is the same for the next values; noted with them: B cell line, TNFa signaling counterscreen reporter; at 3.5 µM; stronger effect = lower value.
As to `N#Cc1ccc(-c2ccc3c(c2)[C@H]2[C@H](CCN2C(=O)C2CC2)[C@@H](CO)N3)cc1`, the max activity is -16.6% (inactive).

As to `CC(=O)NCCCC(=O)NC(CCC(=O)OCc1ccccc1)C(=O)OCc1ccccc1` (stereo unspecified), the max activity is -20% (inactive).

For `N#C[C@@H]1[C@H](c2ccc(C#CC3CCCC3)cc2)[C@H](CO)N1C(=O)Cc1ccccn1`, the max activity is -8.57% (inactive).

Take `Cc1ccc(S(=O)(=O)N2CCCC2CNC(=O)c2ccc3c(c2)OCO3)cc1` (stereo unspecified): the max activity is -23.3% (inactive).

Take `O=C(CNCCO)N1N=C(c2cccs2)CC1c1cccs1` (stereo unspecified): the max activity is -16% (inactive).

With `CCSc1ccc(-c2cc(NC=O)c3ncc(-c4cccc(C(=O)N(C)C)c4)n3c2)cc1`, the max activity is 45.8% (inactive).

In the case of `Cc1ccc(-c2ccccc2[C@H]2[C@@H](C#N)N(c3ncc(-c4ccccc4)s3)[C@@H]2CO)cc1`, the max activity is 7.84% (inactive).

Consider `CCCC(C)Sc1nc2c([nH]1)c(=S)n(C)c(=O)n2C` (stereo unspecified), for which the max activity was 58.9% (inactive).

The same assay, now with this note: B cell line, TNFa signaling counterscreen reporter; at 10 µM; stronger effect = lower value.
In the case of `CCc1cc2c(=O)c(-c3ccc4c(c3)OCCO4)coc2c(CN2CCCCC2C)c1O` (stereo unspecified), the max activity was 26.6% (inactive).

In the case of `CCCCc1nc2ccccc2[nH]1`, the max activity is 6.54% (inactive).

For `C=C1C(=O)OC2C=C(CO)CCC=C(CO)CC(OC(=O)C(C)C)C12` (stereo unspecified), the max activity is 28.9% (inactive).

Consider `Cc1noc(C)c1S(=O)(=O)N(C)C[C@H]1OCc2ccccc2-c2c(n(C)c3ccccc23)C(=O)N([C@H](C)CO)C[C@H]1C`, for which the max activity was -12.3% (inactive).

`OC(CCN1CCCCC1)c1ccc(-c2ccccc2)cc1` (stereo unspecified): the max activity was 32.8% (inactive).

For the compound `CCc1cnc(N2[C@H](C#N)[C@H](c3ccc(C#CCC4CCCC4)cc3)[C@@H]2CO)s1`, the max activity is 32.9% (inactive).

Turning to `N#C[C@@H]1[C@@H](c2ccccc2)[C@H](CO)N1C(=O)CN1CCOCC1`, the max activity is 46.9% (inactive).

With `CCc1cnc(N2[C@H](C#N)[C@@H](c3ccc(C#CC(C)C)cc3)[C@H]2CO)s1`, the max activity was 16.5% (inactive).

Regarding `CCCNC(=O)N1[C@H](CO)[C@H](c2ccc(/C=C/c3ccccc3)cc2)[C@@H]1C#N`, the max activity was 45.4% (inactive).

With `O=C(c1ccc(-c2ccc([N+](=O)[O-])cc2)o1)N1CCCC(C(F)(F)F)C1` (stereo unspecified), the max activity was 46.5% (inactive).

Consider `O=C(NCCC(c1ccccc1)c1ccco1)c1cccs1` (stereo unspecified), for which the max activity was 46.8% (inactive).

On to `CC(=NNC(=S)N1CC2CCC(CC2)C1)c1nccs1`, for which the max activity was 43.9% (inactive).

The next assay concerns B cell line, TNFa signaling counterscreen reporter. The assay is described as above.
Conditions: not given
With `CC1(C)C(=O)C=C[C@@]2(C)C1C[C@@H](O)[C@]1(C)C2CC[C@@]2(C)[C@H](c3ccoc3)OC(=O)[C@H]3O[C@]321` (stereo partly specified), the half-maximal activity concentration (AC50) is 11.3 µM.

For `C=C1C(=O)C23C(O)C1CCC2C12CCCC(C)(COC(C)=O)C1C(O)C3(O)OC2` (stereo unspecified), the concentration at half-maximal activity (AC50) was 0.507 µM.

For the compound `CC(C)=CCc1c2c(c3occ(-c4ccc(O)c(O)c4)c(=O)c3c1O)C=CC(C)(C)O2`, the AC50 was 8.15 µM.

In the case of `CC[C@@]1(O)C(=O)OCc2c1cc1n(c2=O)Cc2cc3cc(O)ccc3nc2-1`, the half-maximal activity concentration (AC50) is 1.13 µM.

Take `O=C1c2c(O)ccc(O)c2C(=O)c2c(NCCNCCO)ccc(NCCNCCO)c21`: the AC50 is 1.18 µM.

As to `Cc1ccc(C(OCC(O)CNCc2ccc(F)cc2)c2ccccc2)cc1` (stereo unspecified), the AC50 is 7.2 µM.

Regarding `C[C@@H]1CN([C@H](C)CO)C(=O)c2c(c3ccccc3n2C)-c2ccccc2CO[C@H]1CN(C)Cc1cccc(C(F)(F)F)c1`, the AC50 is > 20 µM (inactive).

Turning to `Cc1cc(C(=O)COC(=O)c2ccco2)c(C)n1Cc1ccco1`, the AC50 was 0.111 µM.

With `O=C1C(O)CC2c3ccccc3CC3(CCCC3)N12` (stereo unspecified), the AC50 was > 20 µM (inactive).
